Source: patent US20260232767A1, “INTERLEUKIN-23 RECEPTOR ANTAGONIST PEPTIDES FOR USE IN THE TREATMENT OF PSORIASIS” (Janssen Pharmaceutica NV, priority 2023, published 2026)

Test system: subjects with moderate-to-severe plaque psoriasis
Assay: IGA score, Example 1
Type: in vivo, human
Protocol: The Investigator's Global Assessment (IGA) documents the investigator's assessment of the participant's psoriasis at a given time point. Overall lesions are graded for induration, erythema, and scaling. The participant's psoriasis is assessed as cleared (0), minimal (1), mild (2), moderate (3), or severe (4).
This was a randomized, double-blind, placebo-controlled, dose-ranging, parallel group, multicenter, interventional study in subjects with moderate-to-severe plaque psoriasis. A target of 240 subjects were enrolled in this study with 40 subjects planned per intervention group.
Clinician-reported outcomes including Psoriasis Area and Severity Index (PASI), Body Surface Area (BSA), Investigator's Global Assessment (IGA), Nail Psoriasis Area and Severity Index (NAPSI), Fingernail Physician's Global Assessment (f-PGA), Static Physician's Global Assessment of Genitalia (s-PGA-G), Physician's Global Assessment of Hands and/or Feet (hf-PGA), and Scalp Specific Investigator Global Assessment (ss-IGA) were obtained at Week 0, 8, and 16. PASI and IGA were also obtained at Weeks 1, 2, 4, and 12, and at Week 20, four weeks after the administration of the tablets has stopped.

[1] = 100 mg BID, Week 16, trough plasma conc Q2 to <Q3
[2] = 100 mg BID, Week 16, trough plasma conc ≥Q3
[3] = 100 mg QD, Week 16, peak plasma conc. <Q1, N=2
[4] = 100 mg QD, Week 16, peak plasma conc. Q1 to <Q2, N=2
[5] = 100 mg QD, Week 16, peak plasma conc. Q2 to <Q3, N=2
[6] = 100 mg QD, Week 16, peak plasma conc. ≥Q3, N=2
[7] = 100 mg QD, Week 16, trough plasma conc <Q1
[8] = 100 mg QD, Week 16, trough plasma conc Q1 to <Q2
[9] = 100 mg QD, Week 16, trough plasma conc Q2 to <Q3
[10] = 100 mg QD, Week 16, trough plasma conc ≥Q3
[11] = Combined doses, Week 16, peak plasma conc. <Q1, N=10
[12] = Combined doses, Week 16, peak plasma conc. Q1 to <Q2, N=11
[13] = Combined doses, Week 16, peak plasma conc. Q2 to <Q3, N=10
[14] = Combined doses, Week 16, peak plasma conc. ≥Q3, N=11
[15] = Combined doses, Week 16, trough plasma conc <Q1
[16] = Combined doses, Week 16, trough plasma conc Q1 to <Q2
[17] = Combined doses, Week 16, trough plasma conc Q2 to <Q3
[18] = Combined doses, Week 16, trough plasma conc ≥Q3
[19] = Week 16, 25 mg BID, intermediate plasma concentration quartile <Q1, N=1
[20] = Week 16, 25 mg BID, intermediate plasma concentration quartile Q1 to <Q2, N=1
[21] = Week 16, 25 mg BID, intermediate plasma concentration quartile Q2 to <Q3, N=1
[22] = Week 16, 25 mg BID, intermediate plasma concentration quartile ≥Q3, N=1
[23] = Week 16, 25 mg QD, intermediate plasma concentration quartile Q1 to <Q2, N=1
[24] = Week 16, 25 mg QD, intermediate plasma concentration quartile Q2 to <Q3, N=1
[25] = Week 16, 25 mg QD, intermediate plasma concentration quartile ≥Q3, N=1
[26] = Week 16, 50 mg QD, intermediate plasma concentration quartile <Q1, N=1
[27] = Week 16, 50 mg QD, intermediate plasma concentration quartile Q1 to <Q2, N=1
[28] = Week 16, 50 mg QD, intermediate plasma concentration quartile Q2 to <Q3, N=1
[29] = Week 16, 50 mg QD, intermediate plasma concentration quartile ≥Q3, N=2
[30] = Week 16, 100 mg BID, intermediate plasma concentration quartile <Q1, N=1
[31] = Week 16, 100 mg BID, intermediate plasma concentration quartile Q1 to <Q2, N=1
[32] = Week 16, 100 mg BID, intermediate plasma concentration quartile Q2 to <Q3, N=1
[33] = Week 16, 100 mg BID, intermediate plasma concentration quartile ≥Q3, N=2
[34] = Week 16, 100 mg QD, intermediate plasma concentration quartile <Q1, N=1
[35] = Week 16, 100 mg QD, intermediate plasma concentration quartile Q1 to <Q2, N=1
[36] = Week 16, 100 mg QD, intermediate plasma concentration quartile Q2 to <Q3, N=1
[37] = Week 16, 100 mg QD, intermediate plasma concentration quartile ≥Q3, N=1
[38] = Week 16, Combined regimens, intermediate plasma concentration quartile <Q1, N=5
[39] = Week 16, Combined regimens, intermediate plasma concentration quartile Q1 to <Q2, N=5
[40] = Week 16, Combined regimens, intermediate plasma concentration quartile Q2 to <Q3, N=5
[41] = Week 16, Combined regimens, intermediate plasma concentration quartile ≥Q3, N=6

CC(=O)NCCCC[C@@H]1NC(=O)[C@H](Cc2c[nH]c3c(C)cccc23)NC(=O)[C@H]([C@@H](C)O)NC(=O)[C@H](CC(N)=O)NC(=O)[C@@H](NC(C)=O)C(C)(C)SSC(C)(C)[C@@H](C(=O)N[C@@H](Cc2ccc(OCCN)cc2)C(=O)N[C@@H](Cc2ccc3ccccc3c2)C(=O)NC2(C(=O)N[C@@H](CCC(=O)O)C(=O)N[C@@H](CC(N)=O)C(=O)N[C@@H](Cc3cccnc3)C(=O)N(C)CC(N)=O)CCOCC2)NC1=O [IL-23 receptor antagonist peptide, Ac-[Pen]*-N-T-[W(7-Me)]-[Lys(Ac)]-[Pen]*-Phe[4-(2-aminoethoxy)]-[2-Nal]-[THP]-E-N-[3-Pal]-Sarc-NH2 (*[Pen]-[Pen]* formdisulfidebond)]
IGA Score = 0 or 1, subjects (100 mg BID, Week 16, trough plasma conc Q1 to <Q2): 4 (80.0%)
IGA Score = 0, subjects [1]: 2 (40.0%)
IGA Score = 0 or 1, subjects [1]: 3 (60.0%)
IGA Score = 0, subjects [2]: 3 (60.0%)
IGA Score = 0 or 1, subjects [2]: 4 (80.0%)
IGA 0 or 1 treatment difference vs placebo (100 mg QD, Week 16): 51.2% (34.0%,
IGA 0 treatment difference vs placebo (100 mg QD, Week 16): 27.9% (14.6%,
Subjects achieving IGA Score = 0 (100 mg QD, Week 16): 12 (27.9%)
Subjects achieving IGA Score = 0 or 1 (100 mg QD, Week 16): 27 (62.8%)
IGA score 0, % (100 mg QD, Week 16, N=43): 27.9%
IGA score 0/1, % (100 mg QD, Week 16, N=43): 62.8%
IGA Score = 0, % subjects [3]: (50.0%)
IGA Score = 0, n subjects [3]: 1
IGA Score = 0 or 1, % subjects [3]: (50.0%)
IGA Score = 0 or 1, n subjects [3]: 1
IGA Score = 0, % subjects [4]: (50.0%)
IGA Score = 0, n subjects [4]: 1
IGA Score = 0 or 1, % subjects [4]: (100.0%)
IGA Score = 0 or 1, n subjects [4]: 2
IGA Score = 0, % subjects [5]: (50.0%)
IGA Score = 0, n subjects [5]: 1
IGA Score = 0 or 1, % subjects [5]: (50.0%)
IGA Score = 0 or 1, n subjects [5]: 1
IGA Score = 0, n subjects [6]: 0
IGA Score = 0 or 1, % subjects [6]: (50.0%)
IGA Score = 0 or 1, n subjects [6]: 1
IGA Score = 0, subjects [7]: 3 (60.0%)
IGA Score = 0 or 1, subjects [7]: 3 (60.0%)
IGA Score = 0, subjects [8]: 0
IGA Score = 0 or 1, subjects [8]: 3 (60.0%)
IGA Score = 0, subjects [9]: 1 (20.0%)
IGA Score = 0 or 1, subjects [9]: 3 (60.0%)
IGA Score = 0, subjects [10]: 1 (20.0%)
IGA Score = 0 or 1, subjects [10]: 3 (60.0%)
IGA Score = 0, % subjects [11]: (10.0%)
IGA Score = 0, n subjects [11]: 1
IGA Score = 0 or 1, % subjects [11]: (30.0%)
IGA Score = 0 or 1, n subjects [11]: 3
IGA Score = 0, % subjects [12]: (36.4%)
IGA Score = 0, n subjects [12]: 4
IGA Score = 0 or 1, % subjects [12]: (72.7%)
IGA Score = 0 or 1, n subjects [12]: 8
IGA Score = 0, % subjects [13]: (30.0%)
IGA Score = 0, n subjects [13]: 3
IGA Score = 0 or 1, % subjects [13]: (80.0%)
IGA Score = 0 or 1, n subjects [13]: 8
IGA Score = 0, % subjects [14]: (45.5%)
IGA Score = 0, n subjects [14]: 5
IGA Score = 0 or 1, % subjects [14]: (63.6%)
IGA Score = 0 or 1, n subjects [14]: 7
IGA Score = 0, subjects [15]: 10 (38.5%)
IGA Score = 0 or 1, subjects [15]: 14 (53.8%)
IGA Score = 0, subjects [16]: 5 (19.2%)
IGA Score = 0 or 1, subjects [16]: 12 (46.2%)
IGA Score = 0, subjects [17]: 5 (19.2%)
IGA Score = 0 or 1, subjects [17]: 15 (57.7%)
IGA Score = 0, subjects [18]: 10 (37.0%)
IGA Score = 0 or 1, subjects [18]: 21 (77.8%)
IGA Score = 0, subjects n (%) [19]: 0
IGA Score = 0 or 1, subjects n (%) [19]: 0
IGA Score = 0, subjects n (%) [20]: 0
IGA Score = 0 or 1, subjects n (%) [20]: 1 (100.0%)
IGA Score = 0, subjects n (%) [21]: 0
IGA Score = 0 or 1, subjects n (%) [21]: 0
IGA Score = 0, subjects n (%) [22]: 0
IGA Score = 0 or 1, subjects n (%) [22]: 1 (100.0%)
IGA Score = 0, subjects n (%) [23]: 0
IGA Score = 0 or 1, subjects n (%) [23]: 0
IGA Score = 0, subjects n (%) [24]: 1 (100.0%)
IGA Score = 0 or 1, subjects n (%) [24]: 1 (100.0%)
IGA Score = 0, subjects n (%) [25]: 0
IGA Score = 0 or 1, subjects n (%) [25]: 0
IGA Score = 0, subjects n (%) [26]: 0
IGA Score = 0 or 1, subjects n (%) [26]: 0
IGA Score = 0, subjects n (%) [27]: 1 (100.0%)
IGA Score = 0 or 1, subjects n (%) [27]: 1 (100.0%)
IGA Score = 0, subjects n (%) [28]: 1 (100.0%)
IGA Score = 0 or 1, subjects n (%) [28]: 1 (100.0%)
IGA Score = 0, subjects n (%) [29]: 0
IGA Score = 0 or 1, subjects n (%) [29]: 1 (50.0%)
IGA Score = 0, subjects n (%) [30]: 1 (100.0%)
IGA Score = 0 or 1, subjects n (%) [30]: 1 (100.0%)
IGA Score = 0, subjects n (%) [31]: 1 (100.0%)
IGA Score = 0 or 1, subjects n (%) [31]: 1 (100.0%)
IGA Score = 0, subjects n (%) [32]: 0
IGA Score = 0 or 1, subjects n (%) [32]: 0
IGA Score = 0, subjects n (%) [33]: 2 (100.0%)
IGA Score = 0 or 1, subjects n (%) [33]: 2 (100.0%)
IGA Score = 0, subjects n (%) [34]: 1 (100.0%)
IGA Score = 0 or 1, subjects n (%) [34]: 1 (100.0%)
IGA Score = 0, subjects n (%) [35]: 1 (100.0%)
IGA Score = 0 or 1, subjects n (%) [35]: 1 (100.0%)
IGA Score = 0, subjects n (%) [36]: 0
IGA Score = 0 or 1, subjects n (%) [36]: 1 (100.0%)
IGA Score = 0, subjects n (%) [37]: 0
IGA Score = 0 or 1, subjects n (%) [37]: 1 (100.0%)
IGA Score = 0, subjects n (%) [38]: 3 (60.0%)
IGA Score = 0 or 1, subjects n (%) [38]: 3 (60.0%)
IGA Score = 0, subjects n (%) [39]: 2 (40.0%)
IGA Score = 0 or 1, subjects n (%) [39]: 3 (60.0%)
IGA Score = 0, subjects n (%) [40]: 1 (20.0%)
IGA Score = 0 or 1, subjects n (%) [40]: 3 (60.0%)
IGA Score = 0, subjects n (%) [41]: 3 (50.0%)
IGA Score = 0 or 1, subjects n (%) [41]: 5 (83.3%)
